The values below come from patent US20240383900A1, “SUBSTITUTED PYRAZOLO [1,5-A]PYRIMIDINE-7-AMINE COMPOUNDS AS CDK INHIBITORS AND THEIR THERAPEUTIC USE” (Carrick Therapeutics Limited, priority 2021, published 2024).

Series [1] has as its target Human CDK7/CycH/MAT1 (Homo sapiens (Human), UniProt P50613). The experiment in a line: Radiometric protein kinase assay (33PanQinase Activity Assay), CDK7. It is filed as biochemical. The note with it: ATP 3 μM.
The target of series [2] is Cyclin K (Homo sapiens (Human), UniProt O75909). The experiment in a line: Western blotting analysis of Cyclin K depletion in cell culture. It is filed as cell-based. The note with it: A673 cells, 1 μM test compound, 2 hours, absence and presence of 10 μM MLN4924. The procedure:
A673 cells were incubated for 2 hours with of 1 μM compound in presence or in absence of 10 μM of the NAE (NEDD8 activating enzyme) inhibitor MLN4924 (Cell Signalling Technologies). Cells were washed 2× with cold Phosphate Buffered Saline (PBS, Sigma Aldrich), followed by the addition of lysis buffer for 15 minutes on ice before harvesting and centrifugation.
Protein content in the cell lysate was assessed by BCA assay (Thermo Fisher). Samples were then prepared with 4× Laemmlli Buffer (Bio-Rad) and heated to 95° C. for 5 minutes. Each sample was loaded onto a Mini-PROTEAN TGX Stain Free Gel (Bio-Rad) at 50 μg protein/well. SDS-PAGE was performed and then protein was transferred onto a PVDF membrane using a Trans-Blot® Turbo™ Midi PVDF Transfer Pack (Bio-Rad. Membranes were blocked in TBS-T (Invitrogen), 5% (w/v) milk powder (Marvel) overnight at 4° C.
Membranes were incubated with anti-CCNK antibody (rabbit) primary antibody (Abcam) and anti-GAPDH antibody (rabbit) in TBS-T for 2 hours. Membranes were then washed three times with TBS-T, before incubation secondary goat anti-rabbit HRP antibody (Cell Signalling Technologies) followed by 3× washing in TBS-T. Blots were imaged using a Chemidoc imager (Bio-Rad). Cyclin K depletion was measured as the observable drop in band intensity in compound treated samples relative to proteasome-inhibitor treated samples.
Cyclin K degradation was evaluated by Western blotting for cyclin K in A673 cells exposed to 1 μM test compound for 2 hours in the absence and presence of 10 μM MLN4924 (to inhibit proteosome activity).
(Immunoblotting shows a protein as a band on a membrane.)

In series [3] the target is Human CDK12 wt/CycK (Homo sapiens (Human), UniProt Q9NYV4). As to the kind of experiment: Radiometric protein kinase assay (33PanQinase Activity Assay), CDK12. It is filed as biochemical. The method in brief: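 Radiometric 33P assay: ATP, test compound (in 10% DMSO) and premixed substrate/enzyme incubated 60 min at 30 °C, stopped with 2% H3PO4. 33Pi incorporation counted by scintillation; least-squares curve fit.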

Series [4] has as its system A673 cells. The experiment in a line: A673 cytotoxic potency shift in the presence of MLN4924 (cyclin K degrader activity). Type of series: cell-based.
Series [5] deals with A673 cells. As to the kind of experiment: Cytotoxicity in A673 cells (Cell Titer Glo viability). Type of series: cell-based. The note with it: for IC50: Homo sapiens. The method in brief:
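Cells plated at 1.2×10^5 per well in DMEM+10% FBS, 24 h, then compound series ± MLN4924 (30 nM final) in 0.1% DMSO for 72 h. Viability by Cell Titer Glo luminescence, normalised to vehicle (100%) and 0.1% Triton x-100 (0%); MLN4924 curves normalised to MLN4924-treated controls.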

Read-outs that look alike come from different tables or passages of the source.

Human CDK12 wt/CycK, sequence (Q9NYV4 whole entry): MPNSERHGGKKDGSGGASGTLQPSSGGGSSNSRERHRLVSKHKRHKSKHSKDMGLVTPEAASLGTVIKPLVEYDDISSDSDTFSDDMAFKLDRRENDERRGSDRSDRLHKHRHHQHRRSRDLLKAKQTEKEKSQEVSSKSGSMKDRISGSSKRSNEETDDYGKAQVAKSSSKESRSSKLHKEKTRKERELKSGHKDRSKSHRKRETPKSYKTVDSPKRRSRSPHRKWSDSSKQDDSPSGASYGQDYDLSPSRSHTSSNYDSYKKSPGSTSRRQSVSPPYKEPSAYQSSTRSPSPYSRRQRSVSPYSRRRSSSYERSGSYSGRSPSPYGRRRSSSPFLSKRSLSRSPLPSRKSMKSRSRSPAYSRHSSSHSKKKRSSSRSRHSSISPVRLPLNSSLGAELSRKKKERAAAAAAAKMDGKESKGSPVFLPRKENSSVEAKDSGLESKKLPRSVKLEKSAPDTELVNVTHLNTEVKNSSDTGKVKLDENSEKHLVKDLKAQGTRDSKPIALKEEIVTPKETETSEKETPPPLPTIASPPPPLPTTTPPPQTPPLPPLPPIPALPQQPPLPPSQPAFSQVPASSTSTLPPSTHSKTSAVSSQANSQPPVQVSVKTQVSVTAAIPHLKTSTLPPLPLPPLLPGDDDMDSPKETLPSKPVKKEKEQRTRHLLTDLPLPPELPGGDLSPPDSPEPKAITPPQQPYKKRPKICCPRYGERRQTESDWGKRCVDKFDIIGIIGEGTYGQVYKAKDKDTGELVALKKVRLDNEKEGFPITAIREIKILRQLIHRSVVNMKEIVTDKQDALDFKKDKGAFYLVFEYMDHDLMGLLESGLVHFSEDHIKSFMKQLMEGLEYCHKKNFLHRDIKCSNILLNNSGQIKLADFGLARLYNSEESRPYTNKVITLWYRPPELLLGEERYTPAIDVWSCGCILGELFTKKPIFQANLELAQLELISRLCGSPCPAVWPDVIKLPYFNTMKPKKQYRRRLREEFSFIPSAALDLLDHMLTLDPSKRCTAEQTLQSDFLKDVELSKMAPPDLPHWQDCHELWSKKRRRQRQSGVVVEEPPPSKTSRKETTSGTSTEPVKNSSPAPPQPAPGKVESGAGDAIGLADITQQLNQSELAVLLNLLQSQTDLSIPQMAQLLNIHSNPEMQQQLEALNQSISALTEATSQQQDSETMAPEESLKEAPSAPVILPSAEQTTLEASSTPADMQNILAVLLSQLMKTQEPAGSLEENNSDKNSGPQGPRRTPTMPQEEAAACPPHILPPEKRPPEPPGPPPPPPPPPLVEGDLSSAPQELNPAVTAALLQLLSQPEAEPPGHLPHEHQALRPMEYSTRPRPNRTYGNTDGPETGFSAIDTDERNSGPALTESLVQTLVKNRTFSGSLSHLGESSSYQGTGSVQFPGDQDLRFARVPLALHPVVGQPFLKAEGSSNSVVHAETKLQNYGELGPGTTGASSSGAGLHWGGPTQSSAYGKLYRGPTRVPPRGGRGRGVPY
Human CDK12 wt/CycK, sequence (O75909 whole entry partner): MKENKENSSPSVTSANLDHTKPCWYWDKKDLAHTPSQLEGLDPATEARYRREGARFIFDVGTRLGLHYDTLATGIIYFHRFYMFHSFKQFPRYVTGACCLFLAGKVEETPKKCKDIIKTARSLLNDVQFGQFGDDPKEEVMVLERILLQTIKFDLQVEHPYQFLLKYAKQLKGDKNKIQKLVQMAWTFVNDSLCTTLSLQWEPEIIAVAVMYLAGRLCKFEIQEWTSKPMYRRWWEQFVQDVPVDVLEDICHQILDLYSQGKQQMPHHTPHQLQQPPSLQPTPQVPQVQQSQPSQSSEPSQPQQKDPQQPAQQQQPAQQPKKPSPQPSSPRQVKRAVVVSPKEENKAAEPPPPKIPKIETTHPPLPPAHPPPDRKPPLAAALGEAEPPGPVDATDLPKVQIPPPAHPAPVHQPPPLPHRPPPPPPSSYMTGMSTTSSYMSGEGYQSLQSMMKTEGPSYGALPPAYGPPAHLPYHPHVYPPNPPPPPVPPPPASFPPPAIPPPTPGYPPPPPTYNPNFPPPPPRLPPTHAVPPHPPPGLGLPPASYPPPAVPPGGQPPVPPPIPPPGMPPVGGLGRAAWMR
Human CDK7/CycH/MAT1, sequence (P50613 whole entry): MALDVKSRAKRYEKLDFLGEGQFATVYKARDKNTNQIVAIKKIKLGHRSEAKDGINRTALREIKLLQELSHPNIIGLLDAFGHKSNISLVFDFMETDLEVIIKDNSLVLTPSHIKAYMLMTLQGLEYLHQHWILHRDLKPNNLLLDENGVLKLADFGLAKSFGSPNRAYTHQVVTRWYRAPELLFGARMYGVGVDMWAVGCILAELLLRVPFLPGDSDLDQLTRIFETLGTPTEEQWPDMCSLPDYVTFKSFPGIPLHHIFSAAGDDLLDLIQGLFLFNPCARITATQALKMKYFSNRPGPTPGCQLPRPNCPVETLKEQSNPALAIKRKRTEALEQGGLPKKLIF
Human CDK7/CycH/MAT1, sequence (P51946 whole entry partner): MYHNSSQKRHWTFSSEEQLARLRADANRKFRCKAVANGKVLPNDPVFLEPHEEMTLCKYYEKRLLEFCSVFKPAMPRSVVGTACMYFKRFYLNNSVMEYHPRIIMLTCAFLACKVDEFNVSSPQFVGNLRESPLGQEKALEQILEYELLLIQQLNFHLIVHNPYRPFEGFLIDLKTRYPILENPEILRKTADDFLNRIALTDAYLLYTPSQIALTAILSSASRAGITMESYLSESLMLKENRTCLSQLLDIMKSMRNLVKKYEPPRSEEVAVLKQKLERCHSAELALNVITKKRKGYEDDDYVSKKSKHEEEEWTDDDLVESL
Human CDK7/CycH/MAT1, sequence (P51948 whole entry partner): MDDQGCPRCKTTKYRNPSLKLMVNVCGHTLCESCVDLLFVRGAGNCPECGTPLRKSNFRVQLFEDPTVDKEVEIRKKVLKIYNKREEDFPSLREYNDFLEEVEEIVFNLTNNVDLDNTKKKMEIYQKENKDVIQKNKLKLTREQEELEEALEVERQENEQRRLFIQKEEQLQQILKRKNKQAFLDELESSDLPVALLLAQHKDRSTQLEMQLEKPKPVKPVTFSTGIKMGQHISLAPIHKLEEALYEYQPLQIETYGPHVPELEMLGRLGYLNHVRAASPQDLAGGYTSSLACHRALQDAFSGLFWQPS

A word on the IC50: it is the point on the concentration scale where inhibition reaches its midpoint. Consider `O[C@H]1CNCC[C@@H]1CNc1cc(NCc2ccc(-c3ccccn3)cc2)n2ncc(C3CC3)c2n1` [PPA-006], for which the IC50 in series [1] worked out at 312 nM; in series [3] (ATP 0.3 μM, read-out: CDK12 IC50), 51 nM; in series [3] (read-out: CKD12 Biochemical Potency IC50), 51 nM; in series [5] (A673, read-out: Cellular Potency IC50 (nM) (in A673 cells)), 3.5 nM; in series [5] (A673 cells, 72 hours, read-out: A673 IC50), 3.5 nM. Further, the “Cyclin K degradation by Western blotting” value in series [2] is on record as “found to degrade Cyclin K”. Also, the CDK7/CDK12 in series [3] (ratio of CDK7 IC50 to CDK12 IC50, greater than 1 indicates selectivity for CDK12) worked out at 6.1. In addition, the “Cyclin K Degrader Activity (A673 potency shift + MLN4924)” value in series [4] (30 nM MLN4924, 72 hours) is “+++ (>5 fold change.)”. Moreover, the “Change of cytotoxic potency in the presence of MLN4924” value in series [4] (72 hours, presence and absence of 30 nM MLN4924) is reported as “a significant decrease in cytotoxic potency”. Also, the “Ratio of Biochemical Potency:Cellular Potency” value in series [5] (CDK12 IC50 / A673 IC50) is given as 14.57.
